One block for each compound: values may come before it. Active and inactive are the calls of the source. The rule behind the calls is not given here.
Columns and labels:
[1] = target: T1, Baculoviral IAP repeat-containing protein 2/Phospholipid hydroperoxide glutathione peroxidase GPX4 (Homo sapiens, UniProt Q13490+P36969); test: Protac activity at cIAP/GPX4 in human HT-1080 cells assessed as degradation of GPX4 at 10 uM incubated for 48 hrs by Western blot analysis relative to control; assay type: cell-based
Target sequence in this assay (P36969 whole entry, looked up): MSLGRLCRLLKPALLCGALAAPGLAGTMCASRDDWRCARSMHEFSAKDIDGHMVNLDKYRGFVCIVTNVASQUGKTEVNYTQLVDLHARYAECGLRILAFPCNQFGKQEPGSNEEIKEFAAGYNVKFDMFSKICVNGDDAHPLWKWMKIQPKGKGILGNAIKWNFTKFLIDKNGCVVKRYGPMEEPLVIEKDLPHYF
Target sequence in this assay (Q13490 whole entry, looked up): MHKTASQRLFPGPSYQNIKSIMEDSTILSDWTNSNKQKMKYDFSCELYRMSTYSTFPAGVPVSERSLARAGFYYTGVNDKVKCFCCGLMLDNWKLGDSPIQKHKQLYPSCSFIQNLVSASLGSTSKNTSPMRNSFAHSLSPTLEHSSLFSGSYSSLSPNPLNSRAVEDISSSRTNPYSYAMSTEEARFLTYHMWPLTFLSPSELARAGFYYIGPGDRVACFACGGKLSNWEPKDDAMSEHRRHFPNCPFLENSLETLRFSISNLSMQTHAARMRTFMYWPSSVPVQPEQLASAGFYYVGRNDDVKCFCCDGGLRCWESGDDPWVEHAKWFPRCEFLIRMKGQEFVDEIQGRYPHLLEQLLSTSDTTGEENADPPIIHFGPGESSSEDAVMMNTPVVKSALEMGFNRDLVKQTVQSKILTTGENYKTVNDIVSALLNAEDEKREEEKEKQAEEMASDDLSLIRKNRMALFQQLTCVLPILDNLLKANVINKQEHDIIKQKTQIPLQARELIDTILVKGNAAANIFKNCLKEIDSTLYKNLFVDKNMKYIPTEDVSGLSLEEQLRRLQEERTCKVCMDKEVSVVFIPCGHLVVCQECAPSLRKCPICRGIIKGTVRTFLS

[2] = target: T1, Baculoviral IAP repeat-containing protein 2/Phospholipid hydroperoxide glutathione peroxidase GPX4; test: Protac activity at cIAP/GPX4 in human HT-1080 cells assessed as degradation of GPX4 incubated for 48 hrs by Western blot analysis; assay type: cell-based
Target sequence in this assay (Q13490 whole entry): as the sequence (Q13490 whole entry, looked up) above
Target sequence in this assay (P36969 whole entry): as the sequence (P36969 whole entry, looked up) above

[3] = test system: HT-1080; test: Antiproliferative activity against human HT-1080 cells assessed as reduction in cell viability incubated for 48 hrs by CCK-8 assay; assay type: functional, cell-based; details: HT-1080, 48 h
[4] = Cytotoxicity against HEK293T cells assessed as reduction in cell viability incubated for 48 hrs by CCK-8 assay; assay type: toxicity, cell-based, HEK-293T; details: human
[5] = target: T1, Baculoviral IAP repeat-containing protein 2/Phospholipid hydroperoxide glutathione peroxidase GPX4; test: Protac activity at cIAP/GPX4 in human HT-1080 cells assessed as degradation of GPX4 at 3 uM incubated for 4 hrs by Western blot analysis; assay type: cell-based
Target sequence in this assay (P36969 whole entry, looked up): as above
Target sequence in this assay (Q13490 whole entry, looked up): as the sequence (Q13490 whole entry, looked up) above

[6] = test system: HT-1080; test: Protac activity at MDM2/GPX4 in human HT-1080 cells assessed as degradation of GPX4 at 10 uM by Western blot analysis relative to control; assay type: cell-based
[7] = target: T1, Baculoviral IAP repeat-containing protein 2/Phospholipid hydroperoxide glutathione peroxidase GPX4; test: Protac activity at cIAP/GPX4 in human HT-1080 cells assessed as degradation of GPX4 at 5 uM by Western blot analysis; assay type: cell-based; details: time 12-72 hrs
Target sequence in this assay (P36969 whole entry, looked up): as the sequence (P36969 whole entry, looked up) above
Target sequence in this assay (Q13490 whole entry, looked up): as the sequence (Q13490 whole entry, looked up) above

[8] = target: T1, Baculoviral IAP repeat-containing protein 2/Phospholipid hydroperoxide glutathione peroxidase GPX4; test: Protac activity at cIAP/GPX4 in human HT-1080 cells assessed as degradation of GPX4 at 5 uM measured upto 12 hrs after compound washout by Western blot analysis; assay type: cell-based
Target sequence in this assay (P36969 whole entry, looked up): as the sequence (P36969 whole entry, looked up) above
Target sequence in this assay (Q13490 whole entry, looked up): as the sequence (Q13490 whole entry, looked up) above

[9] = target: T1, Baculoviral IAP repeat-containing protein 2/Phospholipid hydroperoxide glutathione peroxidase GPX4; test: Protac activity at cIAP/GPX4 in human HT-1080 cells assessed as degradation of GPX4 at 5 uM preincubated with MG132 for 4 hrs followed by compound addition and measured after 48 hrs by Western blot analysis; assay type: cell-based
Target sequence in this assay (P36969 whole entry, looked up): as the sequence (P36969 whole entry, looked up) above
Target sequence in this assay (Q13490 whole entry, looked up): as the sequence (Q13490 whole entry, looked up) above

[10] = target: T1, Baculoviral IAP repeat-containing protein 2/Phospholipid hydroperoxide glutathione peroxidase GPX4; test: Protac activity at cIAP/GPX4 in human HT-1080 cells assessed as degradation of GPX4 at 5 uM preincubated with chloroquine for 4 hrs followed by compound addition and measured after 48 hrs by Western blot analysis; assay type: cell-based
Target sequence in this assay (P36969 whole entry, looked up): as the sequence (P36969 whole entry, looked up) above
Target sequence in this assay (Q13490 whole entry, looked up): as the sequence (Q13490 whole entry, looked up) above

[11] = target: T1, Baculoviral IAP repeat-containing protein 2/Phospholipid hydroperoxide glutathione peroxidase GPX4; test: Protac activity at cIAP/GPX4 in human HT-1080 cells assessed as degradation of GPX4 at 5 uM preincubated with MLN4924 for 4 hrs followed by compound addition and measured after 48 hrs by Western blot analysis; assay type: cell-based
[12] = target: T1, Baculoviral IAP repeat-containing protein 2/Phospholipid hydroperoxide glutathione peroxidase GPX4; test: Protac activity at cIAP/GPX4 in human HT-1080 cells assessed as degradation of GPX4 at 5 uM preincubated with RSL3 for 4 hrs followed by compound addition and measured after 48 hrs by Western blot analysis; assay type: cell-based
[13] = target: T1, Baculoviral IAP repeat-containing protein 2/Phospholipid hydroperoxide glutathione peroxidase GPX4; test: Protac activity at cIAP/GPX4 in human HT-1080 cells assessed as degradation of GPX4 at 5 uM preincubated with cIAP ligand B4 for 4 hrs followed by compound addition and measured after 48 hrs by Western blot analysis; assay type: cell-based
[14] = test system: HT-1080; test: Antiproliferative activity against human HT-1080 cells assessed as reduction in cell viability at 7.5 uM incubated for 48 hrs in presence of Fer-1 by CCK-8 assay; assay type: functional, cell-based
[15] = test system: HT-1080; test: Antiproliferative activity against human HT-1080 cells assessed as reduction in cell viability at 7.5 uM incubated for 48 hrs in presence of DFOM by CCK-8 assay; assay type: functional, cell-based
[16] = test system: HT-1080; test: Antiproliferative activity against human HT-1080 cells assessed as reduction in cell viability at 7.5 uM incubated for 48 hrs in presence of NAC by CCK-8 assay; assay type: functional, cell-based
[17] = test system: HT-1080; test: Synergistic antiproliferative activity against human HT-1080 cells assessed as induction of cell death at 3.75 uM incubated for 48 hrs in presence of FeCl2 by CCK-8 assay; assay type: functional, cell-based
[18] = test system: HT-1080; test: Antiproliferative activity against human HT-1080 cells assessed as induction of cell death incubated for 48 hrs in presence of Z-VAD-FMK by CCK-8 assay; assay type: functional, cell-based
[19] = test system: HT-1080; test: Induction of ferroptosis in human HT-1080 cells assessed as lipid peroxide accumulation by BODIPY 581/591C11 staining based analysis; assay type: functional, cell-based; details: dose 0.6-10 µM
[20] = test system: HT-1080; test: Induction of ferroptosis in human HT-1080 cells assessed as lipid peroxide accumulation at 10 uM in presence of Fer-1 by BODIPY 581/591C11 staining based analysis; assay type: functional, cell-based
[21] = test system: HT-1080; test: Induction of ferroptosis in human HT-1080 cells assessed as lipid peroxide accumulation at 10 uM in presence of DFOM by BODIPY 581/591C11 staining based analysis; assay type: functional, cell-based
[22] = test system: HT-1080; test: Induction of ferroptosis in human HT-1080 cells assessed as lipid peroxide accumulation at 10 uM in presence of FeCl2 by BODIPY 581/591C11 staining based analysis; assay type: functional, cell-based
[23] = test system: HT-1080; test: Induction of ferroptosis in human HT-1080 cells assessed as lipid peroxide accumulation at 10 uM in presence of NAC by BODIPY 581/591C11 staining based analysis; assay type: functional, cell-based
[24] = test system: Mitochondrial membrane; test: Induction of mitochondrial membrane potential loss in human HT-1080 cells incubated for 48 hrs by JC-1 staining based flow cytometry analysis; assay type: cell membranes; details: dose 0.6-10 µM
[25] = test system: Mitochondrial membrane; test: Induction of mitochondrial membrane potential loss in human HT-1080 cells at 10 uM incubated for 48 hrs in presence of DFOM by JC-1 staining based flow cytometry analysis; assay type: cell membranes
[26] = test system: Mitochondrial membrane; test: Induction of mitochondrial membrane potential loss in human HT-1080 cells at 10 uM incubated for 48 hrs in presence of NAC by JC-1 staining based flow cytometry analysis; assay type: cell membranes
[27] = test system: HEK-293T; test: Cytotoxicity against HEK293T cells assessed as reduction in cell viability at 40 uM incubated for 48 hrs by CCK-8 assay; assay type: toxicity, cell-based; details: human

Emax [1]: 75%
DC50 [2]: 4.22 µM
SMILES: COC(=O)c1ccc([C@H]2c3[nH]c4ccccc4c3C[C@H](C(=O)NCc3cn(CCCCCC(=O)N[C@H](Cc4ccccc4)[C@H](O)C(=O)N[C@@H](CC(C)C)C(=O)OC)nn3)N2C(=O)CCl)cc1

IC50 [3]: 1.55 µM
Activity [5]: inactive
SMILES: COC(=O)c1ccc([C@H]2c3[nH]c4ccccc4c3C[C@H](C(=O)OC)N2C(=O)CCl)cc1
IC50 at 48 h [4]: 10.8 µM

SMILES: COC(=O)[C@H]1Cc2c([nH]c3ccccc23)[C@H](c2ccc(C(=O)NCc3cn(CCOCCNC(=O)CN4CCN(C(=O)N5C(c6ccc(OC)cc6OC(C)C)=N[C@H](c6ccc(Cl)cc6)[C@@H]5c5ccc(Cl)cc5)CC4=O)nn3)cc2)N1C(=O)CCl
Activity [6]: 60%

IC50 [3]: 2.37 µM
Emax [1]: 85%
DC50 [2]: 1.68 µM
Activity [7]: Time-dependent-effect
Activity [8]: Active
Activity [9]: inactive
Activity [10]: inactive
Activity [11]: inactive
Activity [12]: inactive
Activity [13]: inactive
Activity [24]: Dose-dependent-effect
Activity [25]: inactive
Activity [26]: inactive
SMILES: COC(=O)[C@H](CC(C)C)NC(=O)[C@@H](O)[C@@H](Cc1ccccc1)NC(=O)CCCCCCCn1cc(CNC(=O)c2ccc([C@H]3c4[nH]c5ccccc5c4C[C@H](C(=O)OC)N3C(=O)CCl)cc2)nn1
Activity [14]: inactive
Activity [15]: inactive
Activity [16]: inactive
Activity [17]: Active
Activity [18]: Active
Activity [19]: Dose-dependent-effect
Activity [20]: inactive
Activity [21]: inactive
Activity [22]: inactive
Activity [23]: inactive
Activity [27]: Toxic

Source: ChEMBL document CHEMBL6078611, “A potent GPX4 degrader to induce ferroptosis in HT1080 cells” (Eur J Med Chem, 2024)
